{"source": "paper PMC6266398", "about": "“Anti-Acanthamoeba Activity of Brominated Sesquiterpenes from Laurencia johnstonii” (Marine Drugs, 2018)", "key": {"[1]": {"assay": "cytotoxicity test, alamarBlue method", "type": "cell-based", "details": "mouse, 37 °C, read-out: CC50 against murine macrophage J774.A1", "method": "The murine macrophages J774A.1 (ATCC# TIB-67) cell line was cultured in RPMI 1640 medium supplemented with 10% fetal bovine serum at 37 °C and 5% CO2 atmosphere, was used for the cytotoxicity assays.\nThe cytotoxicity assay was carried out using the alamarBlue® method as previously described. Firstly, the macrophages were seeded in triplicate on a 96-well microtiter plates with 50 μL from a stock solution of 2 × 10^5 cells/mL. Macrophages were left to adhere to the bottom of the well for 15 min, which was checked using a Leika DMIL inverted microscope (Leika, Wetzlar, Germany). After that, 50 μL of serial dilutions of the molecules were added to the wells. Finally, the alamarBlue Reagent® (Life Technologies, Madrid, Spain) was placed into each well at an amount equal to 10% of the final volume. Then, plates containing alamarBlue® were incubated for 24 h at 37 °C in presence of CO2 at 5%.\n(§1) Briefly, the test plates were analyzed, during an interval of time between 24 and 96 h, on an EnSpire® Multimode Plate Reader (Perkin Elmer, Madrid, Spain) using fluorescence, a test wavelength of 570 nm and a reference wavelength of 630 nm. The percentage of the growth inhibition, 50% inhibitory concentration (IC50 or CC50) was calculated by linear regression analysis with 95% confidence limits using Sigma Plot 12.0 statistical analysis software (Systat Software). All experiments were performed three times, and the mean values were also calculated. A paired two-tailed t-test was used for analysis of the data. Values of p < 0.05 were considered significant."}, "[2]": {"test_system": "Acanthamoeba castellanii Neff", "assay": "anti-Acanthamoeba activity, alamarBlue method", "type": "cell-based", "details": "for IC50: Acanthamoeba castellanii, ATCC30010, 96 h, read-out: IC50 against Acanthamoeba castellanii Neff; for anti-Acanthamoeba activity (in words): Acanthamoeba castellanii Neff", "method": "The amoeba strain used in this study was the type strain: Acanthamoeba castellanii Neff (ATCC 30010) which was axenically grown in PYG medium (0.75% (w/v) proteose peptone, 0.75% (w/v) yeast extract and 1.5% (w/v) glucose) containing 40 μg/mL of gentamicin (Biochrom AG, Cultek, Granollers, Barcelona, Spain).\nTo evaluate the biological activity of the fractions and molecules, the anti-Acanthamoeba assays were determined using the alamarBlue® method as previously described. Firstly, Acanthamoeba strain was seeded in triplicate on a 96-well microtiter plates with 50 μL from a stock solution of 10^4 cells/mL. Amoebae were left to adhere to the bottom of the well for 15 min, which was checked using a Leika DMIL inverted microscope (Leika, Wetzlar, Germany). After that, 50 μL of serial dilutions of the molecules were added to the wells (1% DMSO was used to dissolve the highest dose of the compounds with no effects on the parasites). […] Finally, the alamarBlue Reagent® (Life Technologies, Madrid, Spain) was placed into each well at an amount equal to 10% of the final volume. Then, plates containing alamarBlue® were incubated for 96 h at 26 °C with a slight agitation.\nas §1"}, "[3]": {"details": "J774A.1 macrophages (ATCC TIB-67)"}, "[4]": {"details": "Neff strain (ATCC 30010), alamarBlue, 96 h at 26 °C"}}, "note": "Several values for one entry are separate records, joined by “and”; a condition that tells them apart may be missing. Equal entries are not always repeated. Where two headings read alike, the source gives them in different places."}
{"smiles": "[H]/N=C(\\N/C(=N/[H])NCCCCCCNC(=N)NC(=N)Nc1ccc(Cl)cc1)Nc1ccc(Cl)cc1", "note": "[Chlorhexidine, chlorhexidine, reference compound]", "values": [{"measurement": "CC50 at 24 h", "setting": "[1]; [3]", "value": "6.64 ± 0.35", "unit": "µg/mL"}, {"measurement": "IC50", "setting": "[2]; [4]", "value": "1.53 µg/mL and 3.02 µM"}]}
{"smiles": "C[C@@H](c1ncncc1F)[C@](O)(Cn1cncn1)c1ccc(F)cc1F", "note": "[Voriconazole, voriconazole, reference compound]", "values": [{"measurement": "CC50 at 24 h", "setting": "[1]; [3]", "value": "2.64 ± 0.27", "unit": "µg/mL"}, {"measurement": "IC50", "setting": "[2]; [4]", "value": "0.33 µg/mL and 940 nM"}]}
{"smiles": "Cc1cc(O)c(C2(C)CCC3CC32C)cc1Br", "note": "(centres unmarked) [compound 1, laurinterol]", "values": [{"measurement": "CC50 at 24 h", "setting": "[1]; [3]", "value": "23.6 ± 2.3", "unit": "µg/mL"}, {"measurement": "anti-Acanthamoeba activity (in words)", "setting": "[2]", "value": "inactive"}, {"measurement": "IC50", "setting": "[2]; [4]", "value": "> 100", "unit": "µg/mL"}]}
{"smiles": "C=C1[C@@H](C)CC[C@@]1(C)c1cc(Br)c(C)cc1O", "note": "[compound 2, isolaurinterol]", "values": [{"measurement": "CC50 at 24 h", "setting": "[1]; [3]", "value": "7.25 ± 0.7", "unit": "µg/mL"}, {"measurement": "anti-Acanthamoeba activity (in words)", "setting": "[2]", "value": "inactive"}, {"measurement": "IC50", "setting": "[2]; [4]", "value": "> 100", "unit": "µg/mL"}]}
{"smiles": "Cc1cc2c(cc1Br)[C@]1(C)CC[C@H](C)[C@]1(C)O2", "note": "[compound 3, aplysin]", "values": [{"measurement": "CC50 at 24 h", "setting": "[1]; [3]", "value": "324 ± 12", "unit": "µg/mL"}, {"measurement": "IC50", "setting": "[2]; [4]", "value": "> 100", "unit": "µg/mL"}]}
{"smiles": "Cc1ccc([C@]2(C)CC[C@@H](Br)C2(C)C)cc1", "note": "[compound 4, α-bromocuparane]", "values": [{"measurement": "CC50 at 24 h", "setting": "[1]; [3]", "value": "33 ± 4.2", "unit": "µg/mL"}, {"measurement": "IC50", "setting": "[2]; [4]", "value": "90.7 µg/mL and 322 µM"}, {"measurement": "IC50 against Acanthamoeba castellanii Neff", "setting": "[2]; [4]", "value": "90.674 ± 1.529", "unit": "µg/mL"}]}
{"smiles": "Cc1ccc([C@]2(C)CC[C@H](Br)C2(C)C)cc1", "note": "[compound 5, α-isobromocuparane]", "values": [{"measurement": "CC50 at 24 h", "setting": "[1]; [3]", "value": "85.3 ± 10.9", "unit": "µg/mL"}, {"measurement": "IC50", "setting": "[2]; [4]", "value": "64.2 µg/mL and 228 µM"}, {"measurement": "IC50 against Acanthamoeba castellanii Neff", "setting": "[2]; [4]", "value": "64.251 ± 3.492", "unit": "µg/mL"}]}
{"smiles": "Cc1c(Br)cc2c(c1Br)O[C@@]1(C)[C@@H](C)CC[C@@]21C", "note": "[compound 6, 8-Bromoaplysin]", "values": [{"measurement": "CC50 at 24 h", "setting": "[1]; [3]", "value": "32.9 ± 3.12", "unit": "µg/mL"}, {"measurement": "IC50", "setting": "[2]; [4]", "value": "24.6 µg/mL and 65.6 µM"}]}
{"smiles": "Cc1c(Br)cc2c(c1Br)O[C@@]1(C)C[C@@H](Br)CC[C@@]21C", "note": "[compound 7, 3α-Bromojohnstane]", "values": [{"measurement": "CC50 at 24 h", "setting": "[1]; [3]", "value": "62.3 ± 2.59", "unit": "µg/mL"}, {"measurement": "IC50", "setting": "[2]; [4]", "value": "18.8 µg/mL and 41.5 µM"}]}
{"smiles": "Cc1c(Br)cc2c(c1Br)O[C@@]1(CBr)[C@@H](C)CC[C@@]21C", "note": "[compound 8, 8,10-Dibromoisoaplysin]", "values": [{"measurement": "CC50 at 24 h", "setting": "[1]", "value": "70.4 ± 3.25", "unit": "µg/mL"}, {"measurement": "IC50", "setting": "[2]", "value": "22.8 µg/mL and 50.4 µM"}]}
{"smiles": "Cc1c(Br)cc2c(c1Br)O[C@@]1(CO)[C@@H](C)CC[C@@]21C", "note": "[compound 9, 8,10-Dibromoaplysinol]", "values": [{"measurement": "CC50 at 24 h", "setting": "[1]; [3]", "value": "74.9 ± 2.77", "unit": "µg/mL"}, {"measurement": "IC50", "setting": "[2]; [4]", "value": "29.9 µg/mL and 76.7 µM"}]}
